The results in this text go back to ChEMBL document CHEMBL4823274, “Discovery of chiral N-2'-aryletheryl-1'-alkoxy-ethyl substituted arylisoquinolones with anti-inflammatory activity from the nucleophilic addition reactions of the thiophenols and oxazolinium” (Eur J Med Chem, 2021).

Data set [1] is described as follows: Cytotoxicity against mouse RAW264.7 cells assessed as cell viability at 0.5 uM incubated for 24 hrs by CCK8 assay. The class given is cell-based. The conditions noted are these: read-out: Activity.
Data set [2] relates to RAW264.7. Nature of the data set: Antiinflammatory activity against LPS-stimulated mouse RAW264.7 cells assessed inhibition of TNFalpha release at 0.5 uM incubated for 24 hrs in presence of LPS by ELISA. It is filed as functional.
A short description of data set [3]: Cytotoxicity against mouse RAW264.7 cells assessed as reduction in cell viability incubated for 24 hrs by CCK8 assay. The class given is cell-based.
The test system of data set [4] is RAW264.7. Nature of the data set: Antiinflammatory activity against LPS-stimulated mouse RAW264.7 cells assessed inhibition of TNFalpha release incubated for 24 hrs in presence of LPS by ELISA. It is filed as functional, cell-based. As to conditions: RAW264.7, 24 h.
Data set [5] is filed under the species Homo sapiens. Nature of the data set: Selectivity ratio of relative binding affinity for human ERalpha LBD to relative binding affinity for human ERbeta LBD.
The target in data set [6] is T1, Estrogen receptor beta (Homo sapiens, UniProt Q92731). Nature of the data set: Binding affinity to human ERbeta LBD measured after 2 hrs by competitive fluorometric binding assay.
The target of data set [7] is T2, Estrogen receptor (Homo sapiens) (UniProt P03372).
T2 sequence (whole entry): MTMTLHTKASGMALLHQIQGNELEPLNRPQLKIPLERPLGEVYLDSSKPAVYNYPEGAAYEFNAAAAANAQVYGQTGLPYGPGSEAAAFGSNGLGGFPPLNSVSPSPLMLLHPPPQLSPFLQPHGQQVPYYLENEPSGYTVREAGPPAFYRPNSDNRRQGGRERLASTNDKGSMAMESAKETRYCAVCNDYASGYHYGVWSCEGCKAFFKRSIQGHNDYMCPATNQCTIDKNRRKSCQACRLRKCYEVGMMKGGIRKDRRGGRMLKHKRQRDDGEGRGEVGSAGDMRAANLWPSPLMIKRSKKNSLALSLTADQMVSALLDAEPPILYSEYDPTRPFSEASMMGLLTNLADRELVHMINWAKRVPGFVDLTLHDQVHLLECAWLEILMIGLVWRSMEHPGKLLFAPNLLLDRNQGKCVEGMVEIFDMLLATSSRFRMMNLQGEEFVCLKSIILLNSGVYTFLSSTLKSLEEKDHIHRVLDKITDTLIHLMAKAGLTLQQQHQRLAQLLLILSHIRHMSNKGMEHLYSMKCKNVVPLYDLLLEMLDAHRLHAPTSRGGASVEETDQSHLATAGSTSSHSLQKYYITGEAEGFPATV
Nature of the data set: Binding affinity to human ERalpha LBD measured after 2 hrs by competitive fluorometric binding assay relative to 17beta-estradiol.

The next data set concerns the target T3, Estrogen receptor (Homo sapiens, UniProt P03372).
T3 sequence (P03372 whole entry): T2 sequence (whole entry)
Nature of the data set: Binding affinity to human ERalpha LBD measured after 2 hrs by competitive fluorometric binding assay.

Data set [8] has as its target T1, Estrogen receptor beta. Nature of the data set: Binding affinity to human ERbeta LBD measured after 2 hrs by competitive fluorometric binding assay relative to 17beta-estradiol.
Data set [9] concerns Mus musculus. Nature of the data set: Antiinflammatory activity against DSS-induced ulcerative colitis C57BL/6J mouse model assessed as reduction in body weight loss at 30 mg/kg, po administered daily via gavage and measured for 11 days. It is filed as functional, organism-based. The conditions noted are these: time 11.0 day.
In data set [10] the test system is Mus musculus. Nature of the data set: Antiinflammatory activity against DSS-induced ulcerative colitis C57BL/6J mouse model assessed as reduction in disease activity index at 30 mg/kg, po administered daily via gavage and measured for 11 days. The class given is functional, organism-based. As to conditions: time 11.0 day.
The species named for data set [11] is Homo sapiens. Nature of the data set: Selectivity ratio of Ki for human ERalpha LBD to Ki for human ERbeta LBD.
Data set [12] relates to Mus musculus. Nature of the data set: Antiinflammatory activity against DSS-induced ulcerative colitis C57BL/6J mouse model assessed as restoration of normal stool consistency at 30 mg/kg, po administered daily via gavage and measured for 11 days. It is filed as functional, organism-based. The conditions noted are these: time 11.0 day.
The test system of data set [13] is Mus musculus. Nature of the data set: Antiinflammatory activity against DSS-induced ulcerative colitis C57BL/6J mouse model assessed as reduction in fecal occult blood at 30 mg/kg, po administered daily via gavage and measured for 11 days. It is filed as functional, organism-based. The conditions noted are these: time 11.0 day.

Calls of active or inactive are those of the source. The calls are words filed in the database; no cut-off is given here. Bounds are passed on as bounds.

T1 sequence (Q92731 whole entry, the tested form may be a part): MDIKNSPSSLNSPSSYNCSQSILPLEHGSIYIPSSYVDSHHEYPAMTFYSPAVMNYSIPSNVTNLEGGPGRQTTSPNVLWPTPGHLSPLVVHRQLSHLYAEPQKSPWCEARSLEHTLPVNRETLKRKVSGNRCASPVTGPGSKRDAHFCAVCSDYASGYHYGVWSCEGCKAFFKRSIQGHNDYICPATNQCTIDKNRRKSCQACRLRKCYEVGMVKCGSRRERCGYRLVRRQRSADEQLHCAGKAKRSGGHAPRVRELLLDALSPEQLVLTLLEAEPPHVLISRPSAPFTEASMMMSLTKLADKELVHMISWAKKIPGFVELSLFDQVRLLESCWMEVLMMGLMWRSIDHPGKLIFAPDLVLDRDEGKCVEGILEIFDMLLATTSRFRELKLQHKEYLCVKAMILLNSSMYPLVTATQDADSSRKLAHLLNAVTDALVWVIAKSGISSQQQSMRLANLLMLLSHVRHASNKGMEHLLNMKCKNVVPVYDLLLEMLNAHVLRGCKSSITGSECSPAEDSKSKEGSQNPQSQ

For the compound `COc1ccc2cc(-c3ccc4c(c3)OCO4)n(C(CSc3ccccc3Br)OC)c(=O)c2c1OC` (centres undefined), the viability at 24 h, 0.5 µM in data set [1] is 80.7%. Besides, in the data set on RAW264.7 [2], the inhibition at 0.5 µM turned out to be 80.7%.
Consider `COc1ccc2cc(-c3ccc4c(c3)OCO4)n(C(CSc3ccc(C)cc3)OC)c(=O)c2c1OC` (centres undefined), for which, in data set [1], the viability at 24 h, 0.5 µM is 70.4%. For the same compound, in the data set on RAW264.7 [2], the inhibition at 0.5 µM worked out at 79.6%.
For `COc1ccc2cc(-c3ccc4c(c3)OCO4)n(C(CSc3ccc(C(F)(F)F)cc3)OC)c(=O)c2c1OC` (centres undefined), in that order: 98% and 72.9%.
The like results for `COc1ccc2cc(-c3ccc4c(c3)OCO4)n(C(CSc3ccccc3)OC)c(=O)c2c1OC` (centres undefined) were, in that order, 85.4% and 49.4%.
As for `COc1ccc2cc(-c3ccc4c(c3)OCO4)n(C(CSc3nc(C)cc(C)n3)OC)c(=O)c2c1OC` (centres undefined), the viability at 24 h, 0.5 µM in [1] was 101%. The inhibition at 0.5 µM with RAW264.7 [2] was determined as 69.7%.
For `COc1ccc2cc3[n+](cc2c1OC)CCc1cc2c(cc1-3)OCO2` [BERBERINE], the viability at 24 h, 0.5 µM in [1] stood at 129%. In addition, the inhibition at 0.5 µM with RAW264.7 [2] was 4.1%.
For `COc1ccc2cc(-c3ccc4c(c3)OCO4)n(C(CSc3ccc(Br)cc3)OC)c(=O)c2c1OC` (centres undefined), in that order: 70.9% and 84.5%.
`COc1ccc2cc(-c3ccc4c(c3)OCO4)n([C@@H](CSc3ccc([N+](=O)[O-])cc3)OC)c(=O)c2c1OC`: the half-maximal cytotoxic concentration (CC50) at 24 h in [3] stood at 7040 nM. Besides, in the data set with RAW264.7 [4], the IC50 stood at 56 nM.
On to `COc1ccc2cc(-c3ccc4c(c3)OCO4)n(C(CSc3cccc(Br)c3)OC)c(=O)c2c1OC` (centres undefined), for which the viability at 24 h, 0.5 µM in data set [1] worked out at 57%. For the same compound, in the data set on RAW264.7 [2], the inhibition at 0.5 µM was determined as 36.1%.
`COc1ccc2cc(-c3ccc4c(c3)OCO4)n([C@H](CSc3ccc([N+](=O)[O-])cc3)OC)c(=O)c2c1OC`: the CC50 at 24 h in data set [3] was over 2500 nM. Besides, in the data set on RAW264.7 [4], the IC50 is over 2500 nM.
As for `COc1ccc2cc(-c3ccc4c(c3)OCO4)n(C(CSc3cccc(C(F)(F)F)c3)OC)c(=O)c2c1OC` (centres undefined), in data set [1], the viability at 24 h, 0.5 µM turned out to be 93.3%. The inhibition at 0.5 µM in the data set with RAW264.7 [2] stood at 69.2%.
As to `COc1ccc(SCC(OC)n2c(-c3ccc4c(c3)OCO4)cc3ccc(OC)c(OC)c3c2=O)cc1` (centres undefined), the viability at 24 h, 0.5 µM in data set [1] amounted to 80.8%. For the same compound, the inhibition at 0.5 µM in the data set with RAW264.7 [2] was -3.4%.
For `COc1ccc2cc(-c3ccc4c(c3)OCO4)n(C(CSc3ccc(F)cc3)OC)c(=O)c2c1OC` (centres undefined), in that order: 77.8% and 77.4%.
For `COc1ccc2cc(-c3ccc4c(c3)OCO4)n(C(CSc3ccc([N+](=O)[O-])cc3)OC)c(=O)c2c1OC` (centres undefined), in that order: 80.1% and 87.8%.
For the compound `COc1ccc2cc(-c3ccc4c(c3)OCO4)n([C@H](COc3ccc([N+](=O)[O-])cc3)OC)c(=O)c2c1OC`, the CC50 at 24 h in data set [3] is over 2500 nM. Further, the IC50 in the data set with RAW264.7 [4] is over 10000 nM. The Ratio in the data set filed under Homo sapiens [5] came to 1. Further, the values for the Ki at Estrogen receptor beta [6] and at Estrogen receptor were 25600 nM and 17100 nM, respectively. Moreover, the RBA (in [7]; on Estrogen receptor beta [8]) was 0.03% in each case.
In the case of `COc1ccc2cc(-c3ccc4c(c3)OCO4)n([C@@H](COc3ccc([N+](=O)[O-])cc3)OC)c(=O)c2c1OC`, the CC50 at 24 h in [3] was determined as 1820 nM. The IC50 with RAW264.7 [4] is 14 nM. Besides, the outcome in the data set on Mus musculus [9], in the data set on Mus musculus [10], in the data set on Mus musculus [12] and in the data set on Mus musculus [13] was Active. The Ratio in the data set filed under Homo sapiens [5] stood at 0.23. For the same compound, the Ki was found to be 761 nM at Estrogen receptor beta [6] and 2320 nM at Estrogen receptor. Moreover, the Ratio Ki in the data set listed under Homo sapiens [11] is 3. In addition, the figures for the RBA (in [7]; on Estrogen receptor beta [8]) were 0.24% and 1.04%, respectively.
Turning to `COc1ccc2cc(-c3ccc4c(c3)OCO4)n(C(CSc3cc(C(F)(F)F)cc(C(F)(F)F)c3)OC)c(=O)c2c1OC` (centres undefined), the viability at 24 h, 0.5 µM in data set [1] was 82.8%. Moreover, in the data set with RAW264.7 [2], the inhibition at 0.5 µM is 78.3%.
